{"source": "patent EP2135864A1", "about": "“5-(4-methanesulfonyl-phenyl)-thiazole derivatives for the treatment of acute and chronic inflammatory diseases” (FAES FARMA, S.A., priority 2008, dated 2009)", "tested_on": "IL-10", "test": "IL-10 production by PBMC from patients with rheumatoid arthritis, CBA", "format": "cell-based, human", "settings": "24 hours, mean ± standard error, n=8", "method": "CBA protocol was followed according to the manufacturer's instructions. The election of microparticles was performed following the summary of Figure 1.\nThe acquisition on samples was performed with the BD FACS Array Bioanalyser System (FACSArray, Becton Dickinson, San José, CA, USA) and the analysis of the results was completed with the software FCAP Array (Becton Dickinson) in a PC computer.\nBriefly, the experimental protocol consisted of a plate pre-washing out with Wash Buffer. After decantation, the mixture of capture microparticles was re-suspended in the vortex. Standards and samples were added in the adequate dilution. After permanent stirring incubation during 1 h, the PE detection reagent was added and incubated again during 2h at room temperature. After a washing-out, the acquisition was performed in the flow cytometer. Table 3. -Kit CBA Human Soluble Protein Multiplex Flex Set System.\nOn the other hand, PBMC (5 x 10^4 cells per well) from 8 patients with rheumatoid arthritis were cultured in duplicate in 200 µl of complete medium supplemented with the highest solvent concentration (10^-6 M), and 10^-6 M, 10^-7 M and 10^-8 M of compound 12 in the presence and absence of either LPS (10 µg/ml) or anti-CD3 (12.5 ng/ml), + anti-CD28 (1/3x10^5), during 24 hours. Culture supernatants were frozen at -20°C and IL-10 concentration was assayed by BD FACS Array Bioanalyser by using CBA Flex Set, specific to determine IL-10 concentration, following the manufacturer instructions."}
{"smiles": "Cc1nc(OC2CCCC2)c(-c2ccc(S(C)(=O)=O)cc2)s1", "note": "[compound 12, 4-cyclopentyloxy-5-(4-methylsulfonyl-phenyl)-2-methylthiazole]", "values": [{"measurement": "IL-10 production in PMBC from patients with rheumatoid arthritis", "setting": "LPS (10µg/ml), 10^-6 M, vehicle 2388.64±300.00, p 0.069", "result": "2787.12±416.91 (0.069) pg/mL"}, {"measurement": "IL-10 production in PMBC from patients with rheumatoid arthritis", "setting": "LPS (10µg/ml), 10^-7 M, vehicle 2388.64±300.00, p 0.327", "result": "2597.85±513.19 (0.327) pg/mL"}, {"measurement": "IL-10 production in PMBC from patients with rheumatoid arthritis", "setting": "LPS (10µg/ml), 10^-8 M, vehicle 2388.64±300.00, p 0.025", "result": "3000.00±400.00 (0.025) pg/mL"}, {"measurement": "IL-10 production in PMBC from patients with rheumatoid arthritis", "setting": "anti-CD3 (12.5 ng/ml) + anti-CD28 (1/3x10^5), 10^-6 M, vehicle 836.39±189.09, p 0.484", "result": "976.96±187.99 (0.484) pg/mL"}, {"measurement": "IL-10 production in PMBC from patients with rheumatoid arthritis", "setting": "anti-CD3 (12.5 ng/ml) + anti-CD28 (1/3x10^5), 10^-7 M, vehicle 836.39±189.09, p 1.000", "result": "805.41±141.23 (1.000) pg/mL"}, {"measurement": "IL-10 production in PMBC from patients with rheumatoid arthritis", "setting": "anti-CD3 (12.5 ng/ml) + anti-CD28 (1/3x10^5), 10^-8 M, vehicle 836.39±189.09, p 0.674", "result": "872.06±150.87 (0.674) pg/mL"}, {"measurement": "IL-10 production in PMBC from patients with rheumatoid arthritis", "setting": "medium, 10^-6 M, vehicle 452.69±107.47, p 0.674", "result": "682.50±113.65 (0.674) pg/mL"}, {"measurement": "IL-10 production in PMBC from patients with rheumatoid arthritis", "setting": "medium, 10^-7 M, vehicle 452.69±107.47, p 0.401", "result": "798.92±144.46 (0.401) pg/mL"}, {"measurement": "IL-10 production in PMBC from patients with rheumatoid arthritis", "setting": "medium, 10^-8 M, vehicle 452.69±107.47, p 0.263", "result": "468.14±65.80 (0.263) pg/mL"}]}
